Consider 22 molecules from patent US8716303B2, “N-(hetero)aryl-pyrrolidine derivatives of pyrazol-4-yl-pyrrolo[2,3-d]pyrimidines and pyrrol-3-yl-pyrrolo[2,3-d]pyrimidines as janus kinase inhibitors” (Incyte Corporation, priority 2009, dated 2014).

For one assay, the target named is T1, Jak2 (a.a. 828-1132) (Homo sapiens, UniProt O60674).
T1 construct: Jak2 (a.a. 828-1132); His tag (N); made in house; host or cells: insect cells (baculovirus)
Briefly: In vitro JAK kinase assay (HTRF, phosphorylation of a biotinylated peptide), JAK2, reported as JAK2/JAK1 ratio. It counts as biochemical. How it is done: (§1) Compounds herein were tested for inhibitory activity of JAK targets according to the following in vitro assay described in Park et al., Analytical Biochemistry 1999, 269, 94-104. The catalytic domains of human JAK1 (a.a. 837-1142), Jak2 (a.a. 828-1132) and Jak3 (a.a. 781-1124) with an N-terminal His tag were expressed using baculovirus in insect cells and purified. The catalytic activity of JAK1, JAK2 or JAK3 was assayed by measuring the phosphorylation of a biotinylated peptide. The phosphorylated peptide was detected by homogenous time resolved fluorescence (HTRF). IC50s of compounds were measured for each kinase in the 40 microL reactions that contain the enzyme, ATP and 500 nM peptide in 50 mM Tris (pH 7.8) buffer with 100 mM NaCl, 5 mM DTT, and 0.1 mg/mL (0.01%) BSA. The ATP concentration in the reactions was 90 μM for Jak1, 30 μM for Jak2 and 3 μM for Jak3 for Km conditions. For the 1 mM IC50 measurements, ATP concentration in the reactions was 1 mM. Reactions were carried out at RT for 1 h and then stopped with 20 μL 45 mM EDTA, 300 nM SA-APC, 6 nM Eu-Py20 in assay buffer (Perkin Elmer, Boston, Mass.). Binding to the Europium labeled antibody took place for 40 min and HTRF signal was measured on a Fusion plate reader (Perkin Elmer, Boston, Mass.).
(§2) Compounds herein were tested for inhibitory activity of JAK1 and JAK2 targets according to the assay of Example A (experiments run at Km or 1 mM as indicated). The symbol “+” indicates an IC50<50 nM; the symbol “++” indicates an IC50≧50 and ≦100 nM; and the symbol “+++” indicates an IC50>100 and ≦500 nM.
On the technique in general: TR-FRET usually uses a lanthanide donor and a delayed reading to cut background.

Assay [1] concerns the target T2, human JAK1 (a.a. 837-1142) (Homo sapiens, UniProt P23458).
T2 construct: human JAK1 (a.a. 837-1142); His tag (N); made in house; host or cells: insect cells (baculovirus)
Briefly: In vitro JAK kinase assay (HTRF, phosphorylation of a biotinylated peptide), JAK1. Type of assay: biochemical. How it is done: as §1, §2

Where [2] appears, read: Assay Conditions Km (ATP 90 μM for Jak1, 30 μM for Jak2).
Setting [3] is: Assay Conditions Km (ATP 90 μM for Jak1).

Where a name gives a salt, the structure may show the parent alone.

T2 sequence (P23458 849-1154): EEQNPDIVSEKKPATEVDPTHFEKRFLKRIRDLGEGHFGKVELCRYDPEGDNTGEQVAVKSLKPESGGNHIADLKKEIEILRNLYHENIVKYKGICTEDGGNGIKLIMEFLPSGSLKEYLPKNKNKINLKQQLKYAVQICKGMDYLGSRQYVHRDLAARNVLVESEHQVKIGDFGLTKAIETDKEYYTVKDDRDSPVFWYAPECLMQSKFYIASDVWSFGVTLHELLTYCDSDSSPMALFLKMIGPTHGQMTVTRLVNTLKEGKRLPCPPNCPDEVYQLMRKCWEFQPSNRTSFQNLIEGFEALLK
T1 sequence (O60674 828-1132): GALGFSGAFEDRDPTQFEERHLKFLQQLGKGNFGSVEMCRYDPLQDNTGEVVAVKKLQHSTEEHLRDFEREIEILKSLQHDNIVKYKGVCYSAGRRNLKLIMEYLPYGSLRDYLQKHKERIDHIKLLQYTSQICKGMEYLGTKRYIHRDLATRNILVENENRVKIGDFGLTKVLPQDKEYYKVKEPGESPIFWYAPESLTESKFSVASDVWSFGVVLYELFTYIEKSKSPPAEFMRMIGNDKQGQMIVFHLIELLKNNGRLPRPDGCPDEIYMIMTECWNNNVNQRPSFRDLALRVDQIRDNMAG

Turning to `N#CC[C@@H]([C@H]1CCN(c2ncncc2C#N)C1)n1cc(-c2ncnc3[nH]ccc23)cn1` [Example 84, 4-((S)-3-((S)-1-(4-(7H-pyrrolo[2,3-d]pyrimidin-4-yl)-1H-pyrazol-1-yl)-2-cyanoethyl)pyrrolidin-1-yl)pyrimidine-5-carbonitrile trifluoroacetate], at Jak2 (a.a. 828-1132) (Assay Conditions 1 mM ATP), the “JAK2/JAK1 IC50 ratio” value worked out at 11.5. Besides, in assay [1] (Assay Conditions 1 mM ATP), the IC50 was less than 50 nM.
On the same counts, the results for `Cc1cnc(N2CC[C@H]([C@H](CC#N)n3cc(-c4ncnc5[nH]ccc45)cn3)C2)c(C#N)n1` [Example 145, 3-((3S)-3-{(1S)-2-cyano-1-[4-(7H-pyrrolo[2,3-d]pyrimidin-4-yl)-1H-pyrazol-1-yl]ethyl}pyrrolidin-1-yl)-6-methylpyrazine-2-carbonitrile trifluoroacetate] are greater than 11.1 and less than 50 nM.
Consider `COCc1c(F)cnc(N2CC[C@H]([C@H](CC#N)n3cc(-c4ncnc5[nH]ccc45)cn3)C2)c1F` [Example 101, (3S)-3-{(3S)-1-[3,5-difluoro-4-(methoxymethyl)pyridin-2-yl]pyrrolidin-3-yl}-3-[4-(7H-pyrrolo[2,3-d]pyrimidin-4-yl)-1H-pyrazol-1-yl]propanenitrile trifluoroacetate], for which the “JAK2/JAK1 IC50 ratio” value at Jak2 (a.a. 828-1132) (Assay Conditions 1 mM ATP) was 4.0. In assay [1] (Assay Conditions 1 mM ATP), this molecule had an IC50 of less than 50 nM.
The corresponding values for `N#CC[C@@H]([C@H]1CCN(c2nc(Cl)c(N)cc2F)C1)n1cc(-c2ncnc3[nH]ccc23)cn1` [Example 91A, (S)-3-(4-(7H-pyrrolo[2,3-d]pyrimidin-4-yl)-1H-pyrazol-1-yl)-3-((S)-1-(5-amino-6-chloro-3-fluoropyridin-2-yl)pyrrolidin-3-yl)propanenitrile bis(trifluoroacetate)] are 6.9 and less than 50 nM.
On the same counts, the results for `COc1ncnc(N2CC[C@H]([C@H](CC#N)n3cc(-c4ncnc5[nH]ccc45)cn3)C2)c1C#N` [Example 98, 4-((S)-3-((S)-1-(4-(7H-pyrrolo[2,3-d]pyrimidin-4-yl)-1H-pyrazol-1-yl) 2-cyanoethyl)pyrrolidin-1-yl)-6-methoxypyrimidine-5-carbonitrile trifluoroacetate] are greater than 9.1 and less than 50 nM.
The corresponding values for `CCCS(=O)(=O)c1ccc(F)c(N2CC[C@H]([C@H](CC#N)n3cc(-c4ncnc5[nH]ccc45)cn3)C2)n1` [Example 99, trifluoroacetate] are 7.6 and less than 50 nM.
As for `N#CCC(C1CCN(c2nc3ccccc3nc2O)C1)n1cc(-c2ncnc3[nH]ccc23)cn1` (centres unmarked) [Example 43, 3-[1-(3-hydroxyquinoxalin-2-yl)pyrrolidin-3-yl]-3-[4-(7H-pyrrolo[2,3-d]pyrimidin-4-yl)-1H-pyrazol-1-yl]propanenitrile trifluoroacetate salt], the “JAK2/JAK1 IC50 ratio” value on Jak2 (a.a. 828-1132) (setting [2]) was found to be 2.5. The molecule also came in with an IC50 in assay [1] (setting [3]) of less than 50 nM.
Take `N#CCC(n1cc(-c2ncnc3[nH]ccc23)cn1)C1(F)CCN(c2nc3cccnc3o2)C1` (single isomer, unassigned) [31, Step 4a, enantiomer 2]: the “JAK2/JAK1 IC50 ratio” value at Jak2 (a.a. 828-1132) (Assay Conditions 1 mM ATP) was 5.1. For the same molecule, in assay [1] (Assay Conditions 1 mM ATP), the IC50 is 50 to 100 nM.
Take `N#CC[C@@H]([C@H]1CCN(c2nc(Cl)c(C#N)cc2F)C1)n1cc(-c2ncnc3[nH]ccc23)cn1` [Example 63, 6-((S)-3-((S)-1-(4-(7H-pyrrolo[2,3-d]pyrimidin-4-yl)-1H-pyrazol-1-yl)-2-cyanoethyl)pyrrolidin-1-yl)-2-chloro-5-fluoronicotinonitrile trifluoroacetate salt]: the “JAK2/JAK1 IC50 ratio” value at Jak2 (a.a. 828-1132) (Assay Conditions 1 mM ATP) came to 7.3. This molecule also registered an IC50 in assay [1] (Assay Conditions 1 mM ATP) of less than 50 nM.
The corresponding values for `COc1ncc(F)c(N2CC[C@H]([C@H](CC#N)n3cc(-c4ncnc5[nH]ccc45)cn3)C2)n1` [Example 104, (S)-3-(4-(7H-pyrrolo[2,3-d]pyrimidin-4-yl)-1H-pyrazol-1-yl)-3-((S)-1-(5-fluoro-2-methoxypyrimidin-4-yl)pyrrolidin-3-yl)propanenitrile trifluoroacetate salt] are 5.9 and less than 50 nM.
For the molecule `N#CCC(C1CCN(c2ncc3cc[nH]c3n2)C1)n1cc(-c2ncnc3[nH]ccc23)cn1` (single isomer, unassigned) [Example 16, 3-[4-(7H-pyrrolo[2,3-d]pyrimidin-4-yl)-1H-pyrazol-1-yl]-3-[1-(7H-pyrrolo[2,3-d]pyrimidin-2-yl)pyrrolidin-3-yl]propanenitrile], the “JAK2/JAK1 IC50 ratio” value at Jak2 (a.a. 828-1132) (Assay Conditions 1 mM ATP) was determined as 11.4. Also, in assay [1] (Assay Conditions 1 mM ATP), the IC50 is less than 50 nM.
As for `N#CCC(C1CCN(c2ncc3cccc(F)c3n2)C1)n1cc(-c2ncnc3[nH]ccc23)cn1` (centres unmarked) [Example 46, 3-[1-(8-fluoroquinazolin-2-yl)pyrrolidin-3-yl]-3-[4-(7H-pyrrolo[2,3-d]pyrimidin-4-yl)-1H-pyrazol-1-yl]propanenitrile], at Jak2 (a.a. 828-1132) (Assay Conditions 1 mM ATP), the “JAK2/JAK1 IC50 ratio” value is on record as 3.7. In assay [1] (Assay Conditions 1 mM ATP), this molecule gave an IC50 of less than 50 nM.
As for `N#CC[C@@H]([C@H]1CCN(c2nc(Cl)c(CO)cc2F)C1)n1cc(-c2ncnc3[nH]ccc23)cn1` [Example 90, (3S)-3-{(3S)-1-[6-chloro-3-fluoro-5-(hydroxymethyl)pyridin-2-yl]pyrrolidin-3-yl}-3-[4-(7H-pyrrolo[2,3-d]pyrimidin-4-yl)-1H-pyrazol-1-yl]propanenitrile trifluoroacetate], on Jak2 (a.a. 828-1132) (Assay Conditions 1 mM ATP), the “JAK2/JAK1 IC50 ratio” value is recorded as 4.3. This molecule also came in with an IC50 in assay [1] (Assay Conditions 1 mM ATP) of less than 50 nM.
The corresponding values for `N#CCC(C1CCN(c2nc3cccnc3o2)C1)n1ccc(-c2ncnc3[nH]ccc23)c1` (single isomer, unassigned) [Example 33, 3-(1-[1,3]oxazolo[5,4-b]pyridin-2-ylpyrrolidin-3-yl)-3-[3-(7H-pyrrolo[2,3-d]pyrimidin-4-yl)-1H-pyrrol-1-yl]propanenitrile phosphate] are 34 and less than 50 nM.
`Cc1ccnc(N2CC[C@H]([C@H](CC#N)n3cc(-c4ncnc5[nH]ccc45)cn3)C2)c1C#N` [Example 100, 2-((S)-3-((S)-1-(4-(7H-pyrrolo[2,3-d]pyrimidin-4-yl)-1H-pyrazol-1-yl)-2-cyanoethyl)pyrrolidin-1-yl)-4-methylnicotinonitrile trifluoroacetate]: on Jak2 (a.a. 828-1132) (Assay Conditions 1 mM ATP), the “JAK2/JAK1 IC50 ratio” value is reported as greater than 7.4. In assay [1] (Assay Conditions 1 mM ATP), the IC50 is less than 50 nM.
For `N#CC[C@@H]([C@H]1CCN(c2cccc(C(F)F)c2C#N)C1)n1cc(-c2ncnc3[nH]ccc23)cn1` [Example 111, 2-((S)-3-((S)-1-(4-(7H-pyrrolo[2,3-d]pyrimidin-4-yl)-1H-pyrazol-1-yl)-2-cyanoethyl)pyrrolidin-1-yl)-6-(difluoromethyl)benzonitrile trifluoroacetate salt], on Jak2 (a.a. 828-1132) (Assay Conditions 1 mM ATP), the “JAK2/JAK1 IC50 ratio” value is given as 37.6. The IC50 in assay [1] (Assay Conditions 1 mM ATP) was less than 50 nM.
On the same counts, the results for `N#CC[C@@H]([C@H]1CCN(c2scc(O)c2C#N)C1)n1cc(-c2ncnc3[nH]ccc23)cn1` [Example 76, 2-((3S)-3-{(1S)-2-cyano-1-[4-(7H-pyrrolo[2,3-d]pyrimidin-4-yl)-1H-pyrazol-1-yl]ethyl}pyrrolidin-1-yl)-4-hydroxythiophene-3-carbonitrile] are 51.1 and less than 50 nM.
For the molecule `N#CCC(C1CCN(c2ccnc(Cl)n2)C1)n1cc(-c2ncnc3[nH]ccc23)cn1` (single isomer, unassigned) [3, Step 2a], the “JAK2/JAK1 IC50 ratio” value at Jak2 (a.a. 828-1132) (setting [2]) came out at 2.3. In addition, the IC50 in assay [1] (setting [3]) is less than 50 nM.
`N#Cc1ncsc1N1CC[C@H](C(CF)n2cc(-c3ncnc4[nH]ccc34)cn2)C1` (stereo partly drawn) [Example 126, 5-((3S)-3-{2-fluoro-1-[4-(7H-pyrrolo[2,3-d]pyrimidin-4-yl)-1H-pyrazol-1-yl]ethyl}pyrrolidin-1-yl)-1,3-thiazole-4-carbonitrile trifluoroacetate]: the “JAK2/JAK1 IC50 ratio” value at Jak2 (a.a. 828-1132) (Assay Conditions 1 mM ATP) was 5.9. The same molecule yielded an IC50 in assay [1] (Assay Conditions 1 mM ATP) of less than 50 nM.
On to `N#CC[C@@H]([C@H]1CCN(c2ncc(C#N)cc2F)C1)n1cc(-c2ncnc3[nH]ccc23)cn1` [Example 107, 6-((S)-3-((S)-1-(4-(7H-pyrrolo[2,3-d]pyrimidin-4-yl)-1H-pyrazol-1-yl)-2-cyanoethyl)pyrrolidin-1-yl)-5-fluoronicotinonitrile trifluoroacetate salt], for which, on Jak2 (a.a. 828-1132) (Assay Conditions 1 mM ATP), the “JAK2/JAK1 IC50 ratio” value is 4.8. In assay [1] (Assay Conditions 1 mM ATP), this molecule had an IC50 of less than 50 nM.
On the same counts, the results for `N#CCC(C1CCN(c2scc(C#N)c2C#N)C1)n1ccc(-c2ncnc3[nH]ccc23)c1` (single isomer, unassigned) [81 enantiomer 2] are 8.1 and less than 50 nM.
Take `N#CCC(C1CCN(c2ccc3c(n2)[S+]([O-])CC3)C1)n1ccc(-c2ncnc3[nH]ccc23)c1` (centres unmarked) [Example 35, 3-[1-(1-oxido-2,3-dihydrothieno[2,3-b]pyridin-6-yl)pyrrolidin-3-yl]-3-[3-(7H-pyrrolo[2,3-d]pyrimidin-4-yl)-1H-pyrrol-1-yl]propanenitrile]: on Jak2 (a.a. 828-1132) (Assay Conditions 1 mM ATP), the “JAK2/JAK1 IC50 ratio” value was determined as 4.2. For the same molecule, in assay [1] (Assay Conditions 1 mM ATP), the IC50 was less than 50 nM.

Broadly, the IC50 is the concentration that inhibits the measured activity by half. High values mean lower potency, low ones higher potency.
